Calls of active or inactive are those of the source. No cut-off for these calls is given here.
What was measured:
[1] = system: Mus musculus; test: Anticonvulsant activity in Mus musculus Balb/c (mouse) assessed as inhibition of pentylenetetrazol-induced mortality at 100 mg/kg, ip pretreated 30 min before pentylenetetrazol challenge by pentylenetetrazol test; type: functional, organism-based; set-up: dose 100 mg/kg
[2] = system: Mus musculus; test: Anticonvulsant activity in Mus musculus Balb/c (mouse) assessed as decrease in severity of seizure at 100 mg/kg, ip pretreated 30 min before pentylenetetrazol challenge by pentylenetetrazol test; type: functional, organism-based; set-up: dose 100 mg/kg
[3] = system: Mus musculus; test: Anticonvulsant activity in Mus musculus Balb/c (mouse) assessed as increase in latency to seizure at 100 mg/kg, ip pretreated 30 min before pentylenetetrazol challenge by pentylenetetrazol test; type: functional, organism-based; set-up: dose 100 mg/kg
[4] = system: Mus musculus; test: Anticonvulsant activity in Mus musculus Balb/c (mouse) assessed as effect on maximal electroshock-induced mortality rate 100 mg/kg, ip measured after 30 min; type: functional, organism-based; set-up: dose 100 mg/kg
[5] = system: Mus musculus; test: Anticonvulsant activity in Mus musculus Balb/c (mouse) assessed as effect on latency of tonic hind limb extension at 100 mg/kg, ip measured after 30 min by maximal electroshock seizure test; type: functional, organism-based; set-up: dose 100 mg/kg; conditions: Hindlimb
[6] = system: Mus musculus; test: Anticonvulsant activity in Mus musculus Balb/c (mouse) assessed as decrease in duration of tonic hind limb extension at 100 mg/kg, ip measured after 30 min by maximal electroshock seizure test; type: functional, organism-based; set-up: dose 100 mg/kg; conditions: Hindlimb
[7] = system: Mus musculus; test: Anticonvulsant activity in Mus musculus Balb/c (mouse) assessed as inhibition of pentylenetetrazol-induced mortality at 150 to 200 mg/kg, ip pretreated 30 min before pentylenetetrazol challenge by pentylenetetrazol test; type: functional, organism-based
[8] = system: Mus musculus; test: Anticonvulsant activity in Mus musculus Balb/c (mouse) assessed as decrease in severity of seizure at 150 to 200 mg/kg, ip pretreated 30 min before pentylenetetrazol challenge by pentylenetetrazol test; type: functional, organism-based
[9] = system: Mus musculus; test: Anticonvulsant activity in Mus musculus Balb/c (mouse) assessed as increase in latency to seizure at 150 to 200 mg/kg, ip pretreated 30 min before pentylenetetrazol challenge by pentylenetetrazol test; type: functional, organism-based
[10] = system: Mus musculus; test: Toxicity in Mus musculus Balb/c (mouse) assessed as duration of spike-wave discharges at 100 mg/kg, ip measured for 2 hr by EEG recordings (reference value: 359.8 +/- 33.5 sec); type: organism-based; set-up: dose 100 mg/kg, route intraperitoneal; conditions: in vivo
[11] = system: Mus musculus; test: Toxicity in Mus musculus Balb/c (mouse) assessed as duration of spike-wave discharges at 150 mg/kg, ip measured for 2 hr by EEG recordings (reference value: 359.8 +/- 33.5 sec); type: organism-based; set-up: dose 150 mg/kg, route intraperitoneal; conditions: in vivo
[12] = system: Mus musculus; test: Anticonvulsant activity in Mus musculus Balb/c (mouse) assessed as effect on severity of seizure at 150 to 200 mg/kg, ip pretreated 30 min before pentylenetetrazol challenge by pentylenetetrazol test; type: functional, organism-based

Row | SMILES | inhibition [1] | inhibition [2] | Activity [3] | Activity [4] | Activity [5] | inhibition [6] | inhibition [7] | inhibition [8] | Activity [9] | Time [10] [s] | Time [11] [s] | Activity [12]
1 | Cc1n[nH]c(C)c1/N=C/c1ccc(O)cc1 | Active | Active | Active | – | – | – | – | – | – | – | – | –
2 | Cc1nn(C(=O)c2ccc(F)cc2)c(C)c1NC(=O)c1ccc(F)cc1 | Active | Active | Active | inactive | inactive | Active | – | – | – | – | – | –
3 | Cc1ccc(C(=O)Nc2c(C)nn(C(=O)c3ccc(C)cc3)c2C)cc1 | Active | Active | Active | – | – | – | – | – | – | – | – | –
4 | Cc1nn(C(=O)c2ccc(Cl)cc2)c(C)c1NC(=O)c1ccc(Cl)cc1 | Active | Active | Active | – | – | – | – | – | – | – | – | –
5 | Cc1n[nH]c(C)c1NC(=O)c1ccncc1 | Active | Active | Active | – | – | – | – | – | – | – | – | –
6 | CCC1(C)CC(=O)NC1=O (configuration not stated) | Active | Active | Active | – | – | – | – | – | – | – | – | –
7 | Cc1n[nH]c(C)c1NC(=O)c1cccnc1 | Active | Active | Active | – | – | – | – | – | – | – | – | –
8 | Cc1nn(C(=O)c2c(Cl)cccc2Cl)c(C)c1NC(=O)c1c(Cl)cccc1Cl | Active | Active | Active | – | – | – | Active | Active | Active | 300 | 337.5 | –
9 | Cc1n[nH]c(C)c1/N=C/c1ccccc1O | Active | Active | Active | – | – | – | – | – | – | – | – | –
10 | COc1ccc(C(=O)Nc2c(C)nn(C(=O)c3ccc(OC)cc3)c2C)cc1 | Active | Active | Active | – | – | – | inactive | – | Active | – | – | inactive
11 | Cc1n[nH]c(C)c1/N=C/c1c(Cl)cccc1Cl | Active | Active | Active | inactive | inactive | Active | – | – | – | – | – | –

From ChEMBL document CHEMBL3044833, “Anticonvulsant activity of 3,5-dimethylpyrazole derivatives in animal models” (Med Chem Res, 2011)
